Source: patent publication US11344564B1, “Method of treatment based on reduced monoamine oxidase a activity” (Lennham Pharmaceuticals, Inc., priority 2021, dated 2022)

Legend:
human MAO-A = target: T1, human MAO-A (Homo sapiens, UniProt P21397); experiment: in vitro metabolism of psilocin by human MAO-A; format: in vitro ADME; conditions: test compound 0.2 and 2 μM; protein 0.03, 0.1, 0.3 and 1 mg/ml; incubation 0-30 min, 37° C., pH 7.4, no cofactors (FIGS. 1A & 1B)
T1 sequence (P21397 1-527): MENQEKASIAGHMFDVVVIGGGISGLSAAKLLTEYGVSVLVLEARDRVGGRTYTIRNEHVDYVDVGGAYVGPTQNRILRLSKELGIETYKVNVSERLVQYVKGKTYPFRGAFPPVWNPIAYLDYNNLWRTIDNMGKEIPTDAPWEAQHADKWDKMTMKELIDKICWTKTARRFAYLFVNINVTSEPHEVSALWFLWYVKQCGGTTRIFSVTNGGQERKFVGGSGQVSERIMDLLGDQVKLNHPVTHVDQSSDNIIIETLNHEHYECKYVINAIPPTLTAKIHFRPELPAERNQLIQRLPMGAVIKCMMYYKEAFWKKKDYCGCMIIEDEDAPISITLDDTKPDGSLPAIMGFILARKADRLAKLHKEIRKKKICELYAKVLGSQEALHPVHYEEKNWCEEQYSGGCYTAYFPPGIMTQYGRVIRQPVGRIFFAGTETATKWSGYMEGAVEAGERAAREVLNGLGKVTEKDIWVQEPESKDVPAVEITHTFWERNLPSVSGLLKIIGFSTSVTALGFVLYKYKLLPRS

human MAO-B = target: T2, human MAO-B (Homo sapiens, UniProt P27338); experiment: in vitro metabolism of psilocin by human MAO-B; format: in vitro ADME; conditions: test compound 0.2 and 2 μM; protein 0.03, 0.1, 0.3 and 1 mg/ml; incubation 0-30 min, 37° C., pH 7.4, no cofactors (FIGS. 1C & 1D)
T2 sequence (P27338 1-520): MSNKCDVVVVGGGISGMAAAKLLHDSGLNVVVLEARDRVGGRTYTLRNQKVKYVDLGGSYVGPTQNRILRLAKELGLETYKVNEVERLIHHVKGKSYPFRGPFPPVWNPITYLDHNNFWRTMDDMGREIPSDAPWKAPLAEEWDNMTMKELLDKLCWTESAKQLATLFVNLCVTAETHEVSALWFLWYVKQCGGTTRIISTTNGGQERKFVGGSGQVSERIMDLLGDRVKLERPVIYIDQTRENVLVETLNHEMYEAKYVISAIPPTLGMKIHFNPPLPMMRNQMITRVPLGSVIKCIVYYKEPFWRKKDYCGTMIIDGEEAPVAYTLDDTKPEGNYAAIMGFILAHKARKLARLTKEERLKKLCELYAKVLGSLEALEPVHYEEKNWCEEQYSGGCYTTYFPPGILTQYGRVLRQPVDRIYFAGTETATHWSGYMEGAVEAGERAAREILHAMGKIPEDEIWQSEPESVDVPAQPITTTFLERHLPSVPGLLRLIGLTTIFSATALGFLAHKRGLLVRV

CN(C)CCc1c[nH]c2cccc(O)c12 [psilocin, 4-hydroxy-N,N-dimethyltryptamine]
metabolism by human MAO-A (human MAO-A): is metabolized by human MAO-A | metabolism by human MAO-B (human MAO-B): not human MAO-B
